These are literature values, as cited in publication PMC6891678, “A Novel Prodrug Approach for Central Nervous System-Selective Estrogen Therapy” (Molecules, 2019).

The subject of one series is OVX CD1 mice. Conditions: increasing s.c. doses, 5 days once daily.
Series [1] concerns uterus. Conditions: increasing s.c. doses, 5 days once daily.
For series [2] the following is noted: 300 µg/kg s.c., 5 days once daily, SEM, n = 4.
For series [3] the following is noted: E2-CDS-treated animals.
Series [4] relates to uterus. As to conditions: after E2-CDS.
The subject of series [5] is transient middle cerebral artery occlusion (tMCAO) ischemic stroke model. Conditions: for ED50 (dose equivalent to 50% of the maximum effect): neuroprotection, tMCAO followed by reperfusion.
The subject of series [6] is MCP-1−/− transgenic mouse model. The arrangement: method as in earlier work. As to conditions: topical eye drops; for increase of contrast sensitivity compared to the vehicle control: ipsilateral/treated eye.
The subject of series [7] is ER transcription (ERE-Luc reporter).
Assay in series [8]: not given
The source holds these as a separate data set.

A further series concerns retina homogenate. As to conditions: 100 μM, 37 °C, homogenate 0.2% w/v, pH 7.4; mean ± SD.
The test system of the next series is brain homogenate. Conditions: 100 μM, 37 °C, homogenate 0.2% w/v, pH 7.4; mean ± SD.
Another series deals with liver homogenate. As to conditions: 100 μM, 37 °C, homogenate 0.2% w/v, pH 7.4; mean ± SD.
Series [9] relates to middle-aged OVX Fisher-344 rats. As to conditions: continuous 7-week s.c. administration, 4 µg daily dose.
A further series relates to amyloid-β peptide (Aβ). Conditions: OVX and intact female APPswe/PS1dE9 DTG mice.

Regarding `C[C@]12CC[C@@H]3c4ccc(O)cc4CC[C@H]3[C@@H]1CC[C@H]2O` [αE2, 17α-estradiol, reference compound], the “immobility time in PST” value in the series on OVX CD1 mice was “dose-dependent reduction in immobility times”.

Take `C[C@]12CC[C@H]3[C@@H](CCC4=CC(=O)C=C[C@@]43O)[C@@H]1CC[C@H]2O` [αDHED, 10β,17α-dihydroxyestra-1,4-dien-3-one]: in the series with OVX CD1 mice, the “immobility time in PST” value was “dose-dependent reduction in immobility times”. In addition, the “uterotrophic effect (wet uterus weight)” value in the series on uterus [1] is given as “devoid of this detrimental common side effect”. Besides, in series [2], the “Cortex αE2” value is recorded as 8.9 ± 1.7 ng/g and the “Serum αE2” value is less than 0.01 ng/mL. Also, in [2] (endogenous E2), the “Cortex E2” value is listed as 0.28 ± 0.09 ng/g, the “Serum E2” value is given as less than 0.01 ng/mL and the “Uterus E2” value is 0.37 ± 0.10 ng/g.

On to `CN1C=CCC(C(=O)O[C@H]2CC[C@H]3[C@@H]4CCc5cc(O)ccc5[C@H]4CC[C@]23C)=C1` [E2-CDS], for which the “E2 content of uterus” value in series [3] was 1 to 3 ng/g. In addition, in the series on uterus [4], the “wet uterine weight relative to control (uterotrophic effect)” value is “significant increase in wet uterine weight”.

With `C[C@]12CC[C@@H]3c4ccc(O)cc4CC[C@H]3[C@@H]1CC[C@@H]2O` [E2, 17β-estradiol, reference compound], the “ED50 (dose equivalent to 50% of the maximum effect)” value in series [5] is ~ 200 µg/kg. Moreover, for the setting “3-week daily E2 eye drops”, the “E2 concentration in the retina” value is given as ~ 22 ng/g. In addition, the circulating estrogen levels (chronic E2 eye drop treatment) is listed as more than 400 pg/mL. For the same compound, in series [6], the “increase of contrast sensitivity compared to the vehicle control” value is listed as approximately 2 fold and the “preservation of contrast sensitivity compared to the wild-type (WT) control” value is approximately 50%. Besides, the “time of maximum bioluminescence effect after drug treatment” value in series [7] (E2 20 μg/kg s.c.) is on record as “about 3 h”. The oral bioavailability result in series [8] is “lacks appreciable oral bioavailability”.

With `C[C@]12CC[C@H]3[C@@H](CCC4=CC(=O)C=C[C@@]43O)[C@@H]1CCC2=O` [HEDD, 10β-hydroxyestra-1,4-dien-3,17-dione], the “neuroprotection in stroke model” value in [5] (without peripheral hormonal liability) was “significant neuroprotection”.

Take `C[C@]12CC[C@@H]3C4=C(CC[C@H]3[C@@H]1CCC2=O)C(=O)C(=O)C=C4` [3,4-E1-quinone, estra-1,5(10)-dien-3,4,17-trione, reference compound]: the “Rate of H2O2 production, Retina” value in the series on retina homogenate is on record as 580 ± 50 nmol·h^−1·mg protein^−1. In addition, the “Rate of H2O2 production, Brain” value in the series with brain homogenate was 1050 ± 8 nmol·h^−1·mg protein^−1. Further, in the series with liver homogenate, the “Rate of H2O2 production, Liver” value was 687 ± 40 nmol·h^−1·mg protein^−1.

As to `C[C@]12CC[C@H]3[C@@H](CCC4=CC(=O)C=C[C@@]43O)[C@@H]1CC[C@@H]2O` [DHED, 10β,17β-dihydroxyestra-1,4-dien-3-one], in series [5], the “ED50 (dose equivalent to 50% of the maximum effect)” value is reported as 15 µg/kg. Besides, in series [6], the “increase of contrast sensitivity compared to the vehicle control” value is “approximately 3 fold” and the “preservation of contrast sensitivity compared to the wild-type (WT) control” value was “approximately 75%”. Also, in [7] (i.c.v. injection, 75 µg/kg), the “ER activation within the brain (bioluminescence in brain slices)” value is “profound ER activation”. Further, the “bioluminescence in the periphery (ERE-Luc reporter activation)” value in series [7] (s.c., E2 20 μg/kg, DHED 200 μg/kg) is listed as “did not generate bioluminescence in the periphery”. Besides, the oral bioavailability result in [8] is given as “excellent oral bioavailability”. Moreover, in [9], the “working memory errors compared to control animals” value was “significantly decreased working memory errors”. In the series on amyloid-β peptide (Aβ), the “amyloid-β peptide (Aβ) levels in the brain” value was “decreased amyloid-β peptide (Aβ) levels in the brain”. In addition, in the series on retina homogenate, the “Rate of H2O2 production, Retina” value is on record as 163 ± 9 nmol·h^−1·mg protein^−1. For the same compound, the “Rate of H2O2 production, Brain” value in the series with brain homogenate is on record as 125 ± 19 nmol·h^−1·mg protein^−1. Moreover, the “Rate of H2O2 production, Liver” value in the series on liver homogenate was 34 ± 18 nmol·h^−1·mg protein^−1.
